Assay results as given in ChEMBL document CHEMBL1201862, “PubChem BioAssay data set” (2004).
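Test compounds were applied to cells in 96-well plates for 48 hours at 5 doses. GI50 is the concentration that inhibits growth by half.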 Calls of active or inactive are those of the source. Cut-off read from the data, not from the text of the source: active = GI50 up to about 1.1 µM and inactive = higher.

Columns and labels:
Test in all cases: NCI tumour cell line growth inhibition, 48 h
NCI-H226 = system: NCI-H226
SF-539 = system: SF-539
EKVX = system: EKVX
SR = system: SR
OVCAR-5 = system: OVCAR-5
IGROV-1 = system: IGROV-1
COLO 205 = system: COLO 205
MOLT-4 = system: MOLT-4
SNB-75 = system: SNB-75
ACHN = system: ACHN
HOP-92 = system: HOP-92
CCRF-CEM = system: CCRF-CEM
SK-OV-3 = system: SK-OV-3
SN12C = system: SN12C
RPMI-8226 = system: RPMI-8226
NCI-H23 = system: NCI-H23
M19-MEL = system: M19-MEL
SW-620 = system: SW-620
LXFL 529 = system: LXFL 529
OVCAR-8 = system: OVCAR-8
HOP-62 = system: HOP-62
RXF 631 = system: RXF 631
SF-268 = system: SF-268
HCT-15 = system: HCT-15
RXF 393 = system: RXF 393
UO-31 = system: UO-31
TK-10 = system: TK-10
DMS-273 = system: DMS-273
SNB-78 = system: SNB-78
LOX IMVI = system: LOX IMVI
DLD-1 = system: DLD-1
HCT-116 = system: HCT-116
SF-295 = system: SF-295
UACC-257 = system: UACC-257
SNB-19 = system: SNB-19
NCI-H460 = system: NCI-H460
HL-60 = system: HL-60
OVCAR-3 = system: OVCAR-3
UACC-62 = system: UACC-62
SK-MEL-2 = system: SK-MEL-2
HT-29 = system: HT-29
Malme-3M = system: Malme-3M
U-251 = system: U-251
786-0 = system: 786-0
A549 = system: A549
HCC 2998 = system: HCC 2998
SK-MEL-28 = system: SK-MEL-28
XF498 = system: XF498
HOP-18 = system: HOP-18
M14 = system: M14
KM12 = system: KM12
SK-MEL-5 = system: SK-MEL-5
K562 = system: K562
KM-20L2 = system: KM-20L2
A498 = system: A498
CAKI-1 = system: CAKI-1
NCI-H522 = system: NCI-H522
OVCAR-4 = system: OVCAR-4
DMS-114 = system: DMS-114

## CC(=O)C1(O)CCC2(O)C3(O)CC=C4CC(O)CCC4(C)C3CC(OC(=O)c3ccc(O)cc3)C12C.COC1CC(OC2C(C)OC(OC3C(C)OC(OC4CCC5(C)C(=CCC6(O)C5CC(OC(=O)c5ccc(O)cc5)C5(C)C(O)(C(C)=O)CCC65O)C4)CC3OC)CC2OC)OC(C)C1O (configuration not stated)
NCI-H226
  GI50: 34.4 µM (inactive)
SF-539
  GI50: 24.5 µM (inactive)
EKVX
  GI50: 35.4 µM (inactive)
SR
  GI50: 25.8 µM (inactive)
OVCAR-5
  GI50: 87.5 µM (inactive)
IGROV-1
  GI50: 34.2 µM (inactive)
COLO 205
  GI50: 26.9 µM (inactive)
MOLT-4
  GI50: 30.5 µM (inactive)
SNB-75
  GI50: 76.4 µM (inactive)
ACHN
  GI50: 30.1 µM (inactive)
HOP-92
  GI50: 21.1 µM (inactive)
CCRF-CEM
  GI50: 32.4 µM (inactive)
SK-OV-3
  GI50: 36.7 µM (inactive)
SN12C
  GI50: 31.3 µM (inactive)
RPMI-8226
  GI50: 27.5 µM (inactive)
NCI-H23
  GI50: 28.9 µM (inactive)
M19-MEL
  GI50: 35.5 µM (inactive)
SW-620
  GI50: 42.1 µM (inactive)
LXFL 529
  GI50: 24.9 µM (inactive)
OVCAR-8
  GI50: 29.9 µM (inactive)
HOP-62
  GI50: 31.6 µM (inactive)
RXF 631
  GI50: 76 µM (inactive)
SF-268
  GI50: 30.6 µM (inactive)
HCT-15
  GI50: 33.6 µM
RXF 393
  GI50: 44.4 µM (inactive)
UO-31
  GI50: 18.3 µM (inactive)
TK-10
  GI50: 60.8 µM (inactive)
DMS-273
  GI50: 36.2 µM (inactive)
SNB-78
  GI50: 20.6 µM (inactive)
LOX IMVI
  GI50: 20.5 µM (inactive)
DLD-1
  GI50: 36.6 µM (inactive)
HCT-116
  GI50: 10 µM (inactive)
SF-295
  GI50: 36 µM (inactive)
UACC-257
  GI50: 23.4 µM (inactive)
SNB-19
  GI50: 33.6 µM (inactive)
NCI-H460
  GI50: 34.2 µM (inactive)
HL-60
  GI50: 20.7 µM (inactive)
OVCAR-3
  GI50: 20.3 µM (inactive)
UACC-62
  GI50: 23.4 µM (inactive)
SK-MEL-2
  GI50: 20.4 µM (inactive)
HT-29
  GI50: 31.4 µM (inactive)
Malme-3M
  GI50: 25.1 µM (inactive)
U-251
  GI50: 22.5 µM (inactive)
786-0
  GI50: 23.7 µM (inactive)
A549
  GI50: 30.5 µM (inactive)
HCC 2998
  GI50: 26.9 µM (inactive)
SK-MEL-28
  GI50: 29 µM (inactive)
XF498
  GI50: 2.03 µM (inactive)
HOP-18
  GI50: 38.7 µM (inactive)

## CC(C)NC(=O)O/N=C1\CCC2[C@@H]3CC=C4C[C@@H](OC(=O)NC(C)C)CC[C@]4(C)C3CC[C@]12C (some centres not stated)
NCI-H226
  GI50: 18.1 µM (inactive)
SF-539
  GI50: 2.4 µM (inactive)
EKVX
  GI50: 1.28 µM (inactive)
SR
  GI50: 1.2 µM (inactive)
OVCAR-5
  GI50: 0.748 µM (active)
IGROV-1
  GI50: 1.87 µM (inactive)
COLO 205
  GI50: 0.359 µM (active)
M14
  GI50: 0.627 µM (active)
MOLT-4
  GI50: 1.42 µM (inactive)
SNB-75
  GI50: 1.87 µM (inactive)
KM12
  GI50: 1.68 µM (inactive)
SK-MEL-5
  GI50: 0.425 µM (active)
ACHN
  GI50: 0.971 µM (active)
K562
  GI50: 0.953 µM (active)
HOP-92
  GI50: 2.08 µM (inactive)
CCRF-CEM
  GI50: 1.24 µM (inactive)
KM-20L2
  GI50: 2.59 µM (inactive)
SK-OV-3
  GI50: 4.31 µM (inactive)
SN12C
  GI50: 1.57 µM (inactive)
RPMI-8226
  GI50: 0.695 µM (active)
NCI-H23
  GI50: 1.18 µM (inactive)
M19-MEL
  GI50: 1.29 µM (inactive)
SW-620
  GI50: 1.79 µM (inactive)
LXFL 529
  GI50: 0.912 µM (active)
OVCAR-8
  GI50: 1.75 µM (inactive)
HOP-62
  GI50: 6.53 µM (inactive)
RXF 631
  GI50: 1.32 µM (inactive)
SF-268
  GI50: 1.49 µM (inactive)
HCT-15
  GI50: 1.43 µM
RXF 393
  GI50: 1.53 µM (inactive)
UO-31
  GI50: 1.01 µM (active)
TK-10
  GI50: 1.66 µM (inactive)
DMS-273
  GI50: 1.31 µM (inactive)
SNB-78
  GI50: 2.29 µM (inactive)
LOX IMVI
  GI50: 1.03 µM (active)
DLD-1
  GI50: 2.53 µM (inactive)
HCT-116
  GI50: 1.43 µM (inactive)
A498
  GI50: 6.89 µM (inactive)
SF-295
  GI50: 1.54 µM (inactive)
CAKI-1
  GI50: 1.44 µM (inactive)
UACC-257
  GI50: 0.685 µM (active)
NCI-H522
  GI50: 1.53 µM (inactive)
SNB-19
  GI50: 2.02 µM (inactive)
NCI-H460
  GI50: 1.38 µM (inactive)
HL-60
  GI50: 0.632 µM (active)
OVCAR-4
  GI50: 1.38 µM (inactive)
OVCAR-3
  GI50: 1.08 µM (active)
UACC-62
  GI50: 1.3 µM (inactive)
SK-MEL-2
  GI50: 1.46 µM (inactive)
HT-29
  GI50: 2.34 µM (inactive)
Malme-3M
  GI50: 0.31 µM (active)
U-251
  GI50: 1.38 µM (inactive)
786-0
  GI50: 1.61 µM (inactive)
DMS-114
  GI50: 0.664 µM (active)
A549
  GI50: 1.47 µM (inactive)
HCC 2998
  GI50: 2.14 µM (inactive)
SK-MEL-28
  GI50: 1.59 µM (inactive)
HOP-18
  GI50: 1.84 µM (inactive)

## CCOC(=O)C12CCCC1(O)N(NC(=O)OC)C(C)=C2C(=O)OC (configuration not stated)
NCI-H226
  GI50: > 100 µM (inactive)
SF-539
  GI50: > 100 µM (inactive)
EKVX
  GI50: > 100 µM (inactive)
OVCAR-5
  GI50: > 100 µM (inactive)
IGROV-1
  GI50: > 100 µM (inactive)
COLO 205
  GI50: > 100 µM (inactive)
M14
  GI50: > 100 µM (inactive)
MOLT-4
  GI50: > 100 µM (inactive)
KM12
  GI50: > 10 µM (inactive)
ACHN
  GI50: > 100 µM (inactive)
K562
  GI50: > 100 µM (inactive)
HOP-92
  GI50: > 100 µM (inactive)
CCRF-CEM
  GI50: > 100 µM (inactive)
KM-20L2
  GI50: > 100 µM (inactive)
SK-OV-3
  GI50: > 100 µM (inactive)
SN12C
  GI50: > 100 µM (inactive)
RPMI-8226
  GI50: > 100 µM (inactive)
NCI-H23
  GI50: > 100 µM (inactive)
M19-MEL
  GI50: > 100 µM (inactive)
SW-620
  GI50: > 100 µM (inactive)
LXFL 529
  GI50: > 100 µM (inactive)
OVCAR-8
  GI50: > 100 µM (inactive)
HOP-62
  GI50: > 100 µM (inactive)
RXF 631
  GI50: > 100 µM (inactive)
SF-268
  GI50: > 100 µM (inactive)
HCT-15
  GI50: > 100 µM
UO-31
  GI50: > 100 µM (inactive)
TK-10
  GI50: > 100 µM (inactive)
DMS-273
  GI50: > 100 µM (inactive)
SNB-78
  GI50: > 100 µM (inactive)
LOX IMVI
  GI50: > 100 µM (inactive)
DLD-1
  GI50: > 100 µM (inactive)
HCT-116
  GI50: > 100 µM (inactive)
A498
  GI50: > 100 µM (inactive)
SF-295
  GI50: > 10 µM (inactive)
CAKI-1
  GI50: > 100 µM (inactive)
UACC-257
  GI50: > 100 µM (inactive)
NCI-H522
  GI50: > 100 µM (inactive)
SNB-19
  GI50: > 100 µM (inactive)
NCI-H460
  GI50: > 100 µM (inactive)
HL-60
  GI50: > 100 µM (inactive)
OVCAR-4
  GI50: > 100 µM (inactive)
OVCAR-3
  GI50: > 10 µM (inactive)
UACC-62
  GI50: > 100 µM (inactive)
SK-MEL-2
  GI50: 14.1 µM (inactive)
HT-29
  GI50: > 100 µM (inactive)
Malme-3M
  GI50: > 100 µM (inactive)
U-251
  GI50: > 100 µM (inactive)
786-0
  GI50: 20.4 µM (inactive)
DMS-114
  GI50: > 100 µM (inactive)
A549
  GI50: > 100 µM (inactive)
HCC 2998
  GI50: > 100 µM (inactive)
SK-MEL-28
  GI50: > 100 µM (inactive)
XF498
  GI50: > 100 µM (inactive)
HOP-18
  GI50: > 100 µM (inactive)
